Source: patent US9258995B2, “Organ cold storage composition and methods of use” (BOARD OF TRUSTEES OF THE UNIVERSITY OF ARKANSAS, priority 2009, dated 2016)
“Also recorded” adds a separate entry of the source.

Legend:
rat kidneys [1] = test: MitoSOX Red mitochondrial superoxide generation, cold storage ex vivo model
Experimental: All animals were treated according to the National Institutes of Health Guide for the Care and Use of Laboratory Animals and the University of Arkansas for Medical Sciences Institutional Animal Care and Use Committee guidelines. Male Fischer 344 inbred rats (Charles Rivers Laboratories, Inc., Wilmington, Mass.) weighing between 250 and 300 g were anesthetized with ethrane, followed by shaving and prepping with betadine. […] Bulldog clamps were placed on the aorta and vena cava (proximal and distal to the renal vessels) to prevent blood flow to the kidneys. A 22-gauge surgical needle was used to puncture the rat's aorta to flush the renal grafts with saline (10 ml per kidney) using a small catheter. Once the kidneys started to turn light brown (perfusion), another vent was formed in the vena cava to allow blood flow from the kidneys. Once both kidneys were completely flushed, the right kidney was recovered and served as a control (group 1), and the left kidney was exposed to CS alone for 4 h at 4° C. (group 2). In additional experiments, kidneys were flushed with saline through the aorta using a small catheter followed by flushing the right kidney with saline containing MitoQ (100 μM) and the left kidney with saline containing DecylTPP (100 μM) (10 ml per kidney). Tissues were recovered and stored in CS+MitoQ (100 μM; right kidney) or CS+DecylTPP (100 μM; left kidney) for 4 h at 4° C. (groups 3 and 4, respectively). […]
(§1) MitoSOX Red (Invitrogen) was used to measure mitochondrial superoxide generation during CS. […] Fluorescence was visualized using an Eclipse E800 microscope (Nikon, Melville, N.Y.) with a rhodamine filter using a water immersion objective (60×). Fluorescent images of NRK cells were captured with equal exposure times and quantified by averaging the mean intensity fluorescence of five random cells in three different fields using Nikon N is Elements software. In separate experiments, cells were grown on coverslips, preloaded with MitoSOX Red before treatment (groups 1-4), and evaluated for mitochondrial superoxide generation using a Hitachi F-2500 spectrofluorometer (Hitachi, Tokyo, Japan) equipped with a coverslip holder using two different excitation wavelengths: 396 and 510 nm with the emission measured at 580 nm as previously described. In addition, rat kidneys were monitored for mitochondrial superoxide generation by flushing kidneys with saline through the aorta using a small catheter as described under Cold Storage Ex Vivo Model, followed by saline containing MitoSOX Red (5 μM; 10 ml/kidney) before treatment (groups 1-4). Paraffin sections were analyzed using the rhodamine filter on the Nikon Eclipse 800 microscope (20×).

rat kidneys [2] = test: TUNEL staining of renal cell death during CS; conditions: 4 h CS, 100 μM
Experimental: All animals were treated according to the National Institutes of Health Guide for the Care and Use of Laboratory Animals and the University of Arkansas for Medical Sciences Institutional Animal Care and Use Committee guidelines. Male Fischer 344 inbred rats (Charles Rivers Laboratories, Inc., Wilmington, Mass.) weighing between 250 and 300 g were anesthetized with ethrane, followed by shaving and prepping with betadine. […] Bulldog clamps were placed on the aorta and vena cava (proximal and distal to the renal vessels) to prevent blood flow to the kidneys. A 22-gauge surgical needle was used to puncture the rat's aorta to flush the renal grafts with saline (10 ml per kidney) using a small catheter. Once the kidneys started to turn light brown (perfusion), another vent was formed in the vena cava to allow blood flow from the kidneys. […]
Cell cytotoxicity was determined using the LDH-Cytotoxicity Assay Kit II (Biovision Research Products, Mountain View, Calif.) according to the manufacturer's instructions. Absorbance was measured at 450 nm using a SpectraMax 190 microplate reader and SpectraMax software (Molecular Devices, Sunnyvale, Calif.). Renal cell death was determined using TUNEL staining. […] The amount of cell death was calculated by averaging the number of cells positive for TUNEL (brown staining) in 10 different fields (cortex and medulla) (20×). […]

porcine kidneys = test: Nitrotyrosine staining of porcine kidneys during cold preservation; design: dose or concentration left out as unconfirmed
Experimental: FIG. 14 depicts micrographs and plots showing increased nitrotyrosine protein expression detected during cold preservation. (A) Representative images showing MitoQ (100 mM) mediated reduction of nitrotyrosine staining. (B) Expression level of total (combined cortex and medulla) nitrotyrosine was evaluated and scored. (C) Expression level of cortical and medulla nitrotyrosine was evaluated and scored. Error bar indicates Mean SEM (n=4). *P<0.05 compared to untreated kidneys at 24 and 48 hr within the cortex.
Nitrotyrosine staining and nitrotyrosine expression levels were used to determine protective effect of MitoQ on porcine kidneys during SC.

NRK cells = test: MitoSOX Red mitochondrial superoxide generation, cold storage in vitro model; format: cell-based, rat; conditions: 4 h CS at 4° C. in UW, 1 μM
Experimental: Normal rat kidney proximal tubular cells (NRK-52E; American Type Culture Collection, Manassas, Va.) were maintained in six-well 100 or 150-mm, or 150-mm plates in a humidified incubator gassed with 5% CO2 and 95% air at 37° C. in DMEM (Invitrogen, Carlsbad, Calif.) containing 5% fetal calf serum (FCS). Cells were grown to 60% confluence and divided into four treatment groups: 1) untreated (Untx), 2) CS, 3) CS+MitoQ, and 4) CS+DecylTPP. Untreated cells remained at 37° C. in DMEM containing 5% FCS (group 1). […]
as §1, with “In addition, rat kidneys were monitored for mitochondrial superoxide generation by flushing kidneys with saline through the aorta using a small catheter as described under Cold Storage Ex Vivo Model, followed by saline containing MitoSOX Red (5 μM; 10 ml/kidney) before treatment (groups 1-4). Paraffin sections were analyzed using the rhodamine filter on the Nikon Eclipse 800 microscope (20×).” left out

[3] = porcine kidneys during cold preservation

Structure (SMILES): COC1=C(OC)C(=O)C(CCCCCCCCCC[P+](c2ccccc2)(c2ccccc2)c2ccccc2)=C(C)C1=O [MitoQ, mitoquinone]
- mitochondrial superoxide production (Mitosox Red staining) (rat kidneys [1]; following cold preservation (Example 1)): blunted
- mitochondrial superoxide generation (MitoSOX Red) (rat kidneys [1]; rat kidneys, 4 h CS at 4° C., 100 μM): markedly decreased
- MitoSox Red staining (superoxide) (rat kidneys [1]; rat kidneys, cold storage 4 hr UW, 4° C., UW+MitoQ (100 µM), n=3): decreases
- decrease of cell death (TUNEL) compared with CS kidneys (rat kidneys [2]): ~2 fold
- nitrotyrosine expression levels, combined cortex and medulla (porcine kidneys; [3]): reduced
- nitrotyrosine staining (porcine kidneys; [3]): significantly decreased; also recorded: reduction
- nitrotyrosine expression levels in the cortex (porcine kidneys; porcine kidneys, 24 and 48 hr): significantly lower
- CS-induced mitochondrial superoxide generation (MitoSOX Red) (NRK cells): significant protection
